Patent publication US7173015B2, “Inhibition of Syk kinase expression” (The Trustees of the University of Pennsylvania, priority 2003, dated 2007)
Entries after “also recorded” stand apart in the source; their conditions may differ.

How the values were obtained:
HS-24 cells = experiment: Viability of HS-24 cells by trypan blue dye exclusion; type: cell-based; details: no significant effect on viability
Syk kinase = experiment: Western blot densitometry of Syk kinase protein in RBL-2H3 cells transfected with siRNA; type: cell-based, rat; details: for Syk (densitometry quantification of Syk kinase expression) / Syk Corr (Syk densitometry units corrected for % actin expression in each lane): 48 hours after transfection; for Syk (densitometry quantification of Syk kinase expression): Western blot; for Syk Corr (Syk densitometry units corrected for % actin expression in each lane): normalized to actin; for % Syk Inhibition: compared to transfection control
Protocol: Rat basophilic cells (RBL-2H3) were grown in EMEM supplemented with 17% FBS, 100 U penicillin, 100 μg/ml streptomycin, and 4 mM glutamine at 37° C. in 5% CO2.
SIRNA was introduced into RBL-2H3 cells and into monocytes by transfection. For the transfections, 5×10^4 RBL-2H3 cells or 1×10^5 monocytes were seeded into each well of a 24-well plate. Twenty-four hours later, the complete medium was replaced with 400 μl fresh medium lacking serum and antibiotic and siRNA/Lipofectamine 2000 complex was added to each well. For the RBL cells, the siRNA/Lipofectamine 2000 complex was formed by adding 3 μl of siRNA duplex (20 μM) and 3 μl of Lipofectamine 2000 to 100 μl Opti-mem without serum or antibiotic according to the manufacturer's protocol. For monocytes, the siRNA/Lipofectamine 2000 complex was formed by adding 3 μl of siRNA duplex (20 μM) and 1 μl of Lipofectamine 2000 to 100 μl Opti-mem without serum or antibiotic. Cells were incubated at 37° C. for 48 hours before examination of kinase protein expression by Western blotting
Lysates were prepared by boiling cells in Laemmli sample buffer (2% SDS, 10% glycerol, 100 mM DTT, and 60 mM Tris (pH 6.8) for 5 minutes. Proteins in lysates were separated by SDS-PAGE (10% polyacrylamide) and transferred to a nitrocellulose membrane in […] (25 mM Tris, 190 mM glycine, and 20% methanol). The nitrocellulose membrane was incubated overnight at 4° C. with 1 μg/ml rabbit anti-murine Syk kinsae polyclonal Ab before incubation with goat anti-rabbit HRP (1.5 h at room temperature). Protein bands on the membrane were visualized with chemiluminescence reagent according to the manufacturer's protocol. After detection of Syk kinase protein, the anti-Syk kinase Ab was removed by incubating the membrane in a stripping buffer containing 100 mM 2-ME, 2% SDS, and 62.5 mM Tris-HCL (pH 6.7) for 30 minutes at 50° C. with occasional agitation. The membrane was then reprobed with anti-actin Ab and bands on the membrane were visualized with chemiluminescence reagent. Protein levels of Syk kinase were quantified by densitometry (Personal Densitometer, Molecular Dynamics).

Syk = experiment: Western blot of Syk protein expression in HS-24 cells after siRNA treatment; type: cell-based; details: 48 hr treatment
Protocol: (§1) FIGS. 5A and 5B. (FIG. 5A) HS-24 cells, following siRNA treatment, were lysed and equal amounts of total protein in HS-24 cell lysates were resolved by 10% SDS gel electrophoresis, and analyzed by Western blot using monoclonal antibody to Syk or actin. Lane 1—no treatment, lane 2—siRNA-1 (control) 24 h treatment, lane 3—siRNA-1 48 h treatment, lane 4—siRNA-2 24 h treatment, lane 5—siRNA-2 48 h treatment. (FIG. 5B) RNA was isolated and RT-PCR was performed for Syk and β-actin. Lane 1—no treatment, lane 2—SiRNA-1 (control) 48 h treatment, lane 3—siRNA-2 48 h treatment.
HS-24 cells (2×10^5) were pre-treated with 3 μl of siRNA-1 (control)
(§2) or Syk antisense, with Lipofectamine 2000 in a 12-well plate for 24 or 48 hr, and stimulated by 10 ng/ml of TNF overnight. Read-outs: IL-6 in culture supernatant (ELISA) and cell surface expression of ICAM-1 (Flow cytometry). As shown by Western blot analysis ([…]), siRNA-2 caused a decrease in Syk protein expression following 48 hr of treatment.
(§3) More specifically, HS-24 cells were transiently transfected with siRNA-2 or siRNA-1 (control). Cell surface expression of ICAM-1, as well as release of IL-6, were then examined.

Syk mRNA = experiment: RT-PCR of Syk mRNA in HS-24 cells after siRNA treatment; type: cell-based; details: 48 h treatment
Protocol: as §1, §3

[1] = system: ICAM-1 (CD54) expression in HS-24 cells; experiment: Cell surface expression of ICAM-1 in HS-24 cells (flow cytometry); type: cell-based; details: for TNF-induced ICAM-1 expression: siRNA 48 h, TNF 10 ng/ml overnight
Protocol: (§4) FIGS. 6A and 6B. HS-24 cells plated on either polylysine coated plates (non stimulated, resting) or fibronectin coated plates (stimulated) were treated with siRNA-2, or siRNA-1 (control), or piceatannol. Cells were treated with 10 ng/ml of TNF during overnight culture. (FIG. 6A) Following siRNA (48 h) or piceatannol (16 h) treatment, cells were removed, immunostained with anti-CD54 (ICAM-1) and analysed by flow cytometry. (FIG. 6B) Cell culture supernatants were analysed for IL-6 release using an IL-6 ELISA kit. *P<0.05, **P<0.005 as compared to untreated cells (e.g., untreated with siRNA) stimulated with TNF. Results are representative of three to five independent experiments.
as §2

[2] = system: IL-6 release by HS-24 cells; experiment: IL-6 release of HS-24 cells into culture supernatant (ELISA); type: cell-based
Protocol: as §4, §2

Row | Compound | viability (trypan blue dye exclusion) (HS-24 cells) [%] | Syk (densitometry quantification of Syk kinase expression) (Syk kinase) [densitometry units] | Syk Corr (Syk densitometry units corrected for % actin expression in each lane) (Syk kinase) [densitometry units] | % Syk Inhibition (Syk kinase) [%] | Syk protein expression (Syk) | Syk mRNA expression (Syk mRNA) | TNF-induced ICAM-1 expression (summary of FIG. 6A) ([1]; HS-24 cells) | constitutive ICAM-1 expression ([1]; HS-24 cells without TNF stimulation) | TNF-induced ICAM-1 expression ([1]; fibronectin-plated HS-24 cells) | TNF-induced ICAM-1 expression ([1]; poly-L-lysine-plated HS-24 cells) | IL-6 release (summary of FIG. 6B) ([2]; HS-24 cells, TNF-induced) | down-regulation of IL-6 release ([2]; TNF-stimulated HS-24 cells, poly-L-lysine and fibronectin culture, significant in fibronectin-adherent culture (P<0.05))
1 | Oc1cc(O)cc(/C=C/c2ccc(O)c(O)c2)c1 [piceatannol] | > 96 |  |  |  |  |  |  |  |  |  |  | 
2 | siRNA-1: Syk kinase siRNA duplex; sense 5′ gaagcccuucaaccggccc UU 3′ (SEQ ID NO: 23), antisense 3′-UU cuucgggaaguuggccggg 5′ (SEQ ID NO: 24) (sense GAAGCCCUUCAACCGGCCCUU; antisense GGGCCGGUUGAAGGGCUUCTT; chemistry not given here) |  | 953 | 1114 | 45 | not | not |  |  |  |  |  | 
3 | siRNA-2: Syk kinase siRNA duplex; sense 5′-ccucaucagggaauaucug UU 3′ (SEQ ID NO: 25), antisense 3′-UU ggaguagucccuuauagac 5′ (SEQ ID NO: 26) (sense CCUCAUCAGGGAAUAUCUGUU; antisense CAGAUAUUCCCUGAUGAGGTT; chemistry not fully specified) |  | 627 | 997 | 51 | decrease; also recorded: significantly suppressed | significantly suppressed | down-regulates | not affected | down-regulated | no significant effect | down-regulates | 55–58%
